Assay results published in US11369662B2 (The Medical College of Wisconsin, Inc., priority 2014, dated 2022).
Marks after values point to notes of the source that are not given here.

Tests used:
[1] = biological target: T1, CXCL121 (Homo sapiens, UniProt P48061, I79C/L76C); test: 2D NMR (1H-15N HSQC) titration of CXCR4 peptides into CXCL121; type: binding; conditions: ΔG = −RT ln Kd @ 298 K
T1 construct: made in house
Description: (§1) NMR spectroscopy. All NMR spectra were acquired on a Bruker DRX 600 MHz spectrometer equipped with a ^1H, ^15N, ^13C TXI cryoprobe at 298 K. Experiments were performed with either 50 μM [U-^15N]-CXCL12WT, -CXCL121, or -CXCL122 proteins in a solution containing 25 mM deuterated MES (pH 6.8), 10% (v/v) D2O, and 0.02% (w/v) NaN3. Full-length CXCR41-38 peptide titrations required 20 μM [U-^15N]-CXCL121 and -CXCL122 protein samples. Sulfated CXCR4 peptides were reconstituted at 100 mM in 25 mM deuterated MES, 10% (v/v) D2O, and 0.02% (w/v) NaN3 buffer. Unsulfated CXCR4 peptides were similarly reconstituted to 15 mM. Two separate 4ISIYTSD10 (SEQ ID NO:8) peptide samples were reconstituted at 10 mM and 15 mM peptide in 25 mM deuterated MES, 10% (v/v) D20, 0.02% (w/v) NaN3 buffer, from lyophilized powder.
(§2) Total peptide additions differed for individual peptide titrations but ranged from 0-160 equivalencies. Spectra were processed using in-house scripts and chemical shift tracking was performed using CARA software. Combined ^1H/^15N chemical shift perturbations were calculated as ((5 ΔδH)^2+(ΔδNH)^2)^0.5, where δH and δNH are the amide proton and nitrogen chemical shifts, respectively. Equilibrium dissociation constants (Kd) were determined by non-linear fitting of the combined ^1H/^15NH chemical shift perturbations as a function of peptide concentration to a single-site quadratic equation. For a given interaction, residues with the largest chemical shift perturbations were fitted individually. The resulting Kd values and their respective fitting errors were then averaged to produce the reported affinity and standard deviation for that interaction.

[2] = biological target: T2, CXCL12WT (Homo sapiens, UniProt P48061); conditions: ΔG = −RT ln Kd @ 298 K; calculated from Veldkamp et al. (32); cited from earlier work
T2 construct: made in house

[3] = biological target: T3, CXCL122 (Homo sapiens, UniProt P48061, A86C/L57C); test: 2D NMR (1H-15N HSQC) titration of CXCR4 peptides into CXCL122; type: binding; conditions: ΔG = −RT ln Kd @ 298 K
T3 construct: made in house
Description: as §1, §2

CC[C@H](C)[C@H](NC(=O)CNC(=O)[C@H](CCC(=O)O)NC(=O)[C@H](CCSC)NC(=O)[C@H](CCSC)NC(=O)CN)C(=O)N[C@@H](CO)C(=O)N[C@H](C(=O)N[C@@H](Cc1ccc(O)cc1)C(=O)N[C@H](C(=O)N[C@@H](CO)C(=O)N[C@@H](CC(=O)O)C(=O)N[C@@H](CC(N)=O)C(=O)N[C@@H](Cc1ccc(O)cc1)C(=O)N[C@H](C(=O)N[C@@H](CCC(=O)O)C(=O)N[C@@H](CCC(=O)O)C(=O)N[C@@H](CCSC)C(=O)NCC(=O)N[C@@H](CO)C(=O)NCC(=O)N[C@@H](CC(=O)O)C(=O)N[C@@H](Cc1ccc(O)cc1)C(=O)N[C@@H](CC(=O)O)C(=O)N[C@@H](CO)C(=O)N[C@@H](CCSC)C(=O)N[C@@H](CCCCN)C(=O)N[C@@H](CCC(=O)O)C(=O)N1CCC[C@H]1C(=O)N[C@@H](C)C(=O)N[C@@H](Cc1ccccc1)C(=O)N[C@@H](CCCNC(=N)N)C(=O)N[C@@H](CCC(=O)O)C(=O)N[C@@H](CCC(=O)O)C(=O)N[C@@H](CC(N)=O)C(=O)N[C@@H](C)C(=O)N[C@@H](CC(N)=O)C(=O)N[C@@H](Cc1ccccc1)C(=O)N[C@@H](CC(N)=O)C(=O)N[C@@H](CCCCN)C(=O)O)[C@@H](C)O)[C@@H](C)O)[C@@H](C)CC [CXCR41-38]
ΔG [1]: -7.43 kcal/mol
ΔG (kcal mol^−1) [2]: −7.29* kcal mol^−1
ΔG [3]: -8.24 kcal/mol
